Patent US6284910A, “Farnesyl pyrophosphate analogs” (University of Kentucky Research Foundation, priority 1999, dated 2001)
Entries after “also recorded” stand apart in the source; their conditions may differ.

Key:
squalene synthase = molecular target: T1, squalene synthase (Bos taurus, UniProt Q32KR6); assay: Inhibition of squalene synthase activity in bovine brain microsomes; type: biochemical; conditions: 0.05 mM [^3 H]FPP
T1 construct: squalene synthase activity present in bovine brain microsome fractions; from tissue; host or cells: bovine brain microsomes (crude)
T1 sequence (Q32KR6 1-417): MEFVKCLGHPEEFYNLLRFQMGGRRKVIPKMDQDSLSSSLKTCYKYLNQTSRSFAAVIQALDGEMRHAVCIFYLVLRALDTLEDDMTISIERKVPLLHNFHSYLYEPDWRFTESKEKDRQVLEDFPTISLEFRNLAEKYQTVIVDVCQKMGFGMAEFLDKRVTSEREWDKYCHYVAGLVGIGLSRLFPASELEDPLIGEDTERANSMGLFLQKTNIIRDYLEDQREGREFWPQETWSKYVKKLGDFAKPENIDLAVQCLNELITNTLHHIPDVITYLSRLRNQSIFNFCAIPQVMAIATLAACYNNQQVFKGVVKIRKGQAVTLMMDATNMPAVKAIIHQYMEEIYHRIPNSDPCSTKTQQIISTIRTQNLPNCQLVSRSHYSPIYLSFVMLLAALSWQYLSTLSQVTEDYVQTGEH
Procedure: FIG. 7. Inhibition of Squalene Synthase by AGPP. The initial rates of squalene synthase activity were determined from bovine brain microsomal preparations in the presence of the indicated concentration of unlabeled AGPP (filled squares) or unlabeled FPP (open triangles) under the in vitro conditions described in "Experimental Procedures." Crude bovine brain microsomes and 0.05 mM [^3 H]FPP (105 cpm/pmol) and unlabeled AGPP and FPP were added at the indicated concentrations and incubated for 30 min. at 37° C. The reactions were terminated with 40% (wt/vol) KOH and 95% ethanol. Authentic carrier squalene (20 μg) was added and the reactions extracted with petroleum ether. The amount of labeled lipid formed was measured by scintillation counting. […]
Assay for Squalene Synthase Activity--Initial rates of squalene synthase activity present in bovine brain microsome fractions were assayed as previously described (19) with minor modifications. […] The remaining sample was analyzed on Silica gel G 60 TLC plates by developing with hexane (33). […]
FIG. 7 depicts inhibition of Squalene Synthase by AGPP. The initial rates of squalene synthase activity were determined from bovine brain microsomal preparations in the presence of the indicated concentration of unlabeled AGPP (filled squares) or unlabeled FPP (open triangles) (77). […] The amount of labeled lipid formed was measured by scintillation counting.

FTase = FTase (Rattus norvegicus, UniProt Q02293+Q04631); assay: Continuous fluorescence assay: transfer of FPP and analogs to N-dansyl-GCVLS by FTase; type: biochemical; conditions: excitation 340 nm, 505 nm
Source text: FIG. 8. Progress Curves for Transfer of FPP and Analog Pyrophosphates to Dansyl-GCVLS by FTase. The reaction is monitored for fluorescence intensity at 505 nm with excitation at 340 nm. (a) FPP, (b) AGPP, (c) 8-(pentafluoroaniline)geranyl pyrophosphate, (d) blank.
Continuous Fluorescence Assay for Analog Transfer: An important requirement for these studies is the development of a rapid technique for evaluating whether FPP analogs that are efficiently and appropriately transferred to target substrates by FTase. The analogs were evaluated for their ability to be transferred by FTase to the pentapeptide N-dansyl-GCVLS in a continuous fluorescence assay. (See references 78, 79, infra). There is a time dependent increase in the fluorescence of the dansyl group due to the local increase in hydrophobicity as the adjacent cysteine residue is isoprenylated. […] (FIG. 8).

Xenopus laevis oocytes = assay: Xenopus laevis oocyte maturation assay (GVBD) with oncogenic H-Ras in mevinolin-treated oocytes; type: cell-based
Source text: Recently, a novel methodology involving the microinjection of known amounts of Ras into Xenopus oocytes has been described (see references 24, 45, infra), thereby permitting a quantitative structure-function analysis of H-Ras farnesyl-group for signal transduction in vivo. The approach makes use of enzymatic methods to attach structurally related farnesyl analogs onto the prenylation site of H-Ras combined with microinjection procedures to study their in vivo function. Oocytes are naturally arrested at the G2-M boundary of the first meiotic cell division. (See reference 80, infra). When microinjected with oncogenic H-Ras, oocytes reenter the cell cycle, which is monitored by germinal vesicle breakdown (GVBD) by the appearance of a white spot in the animal hemisphere. GVBD is accompanied by activation of the mitogen-activated protein kinase (MAPK) cascade. (See 81, 82, infra). […] (See references 24, 45, infra). These biochemical effects are strictly dependent on in vivo farnesylation of the injected H-Ras protein since mutation of the CaaX prenylation motif, blocking isoprenoid biosynthesis, and inhibition of FTase in oocytes all suppress these activities. (See references 83-85, infra). Thus, the system provides a method to study the in vivo role of prenylation by analyzing the ability of FPP analogues to rescue H-Ras biological functions in isoprenoid-depleted oocytes. […] Oocytes were isolated from X. laevis females and allowed to recover overnight. (See 24, 45, infra).

C/C(=C\COP(=O)(O)OP(=O)(O)O)CC/C=C(\C)CNc1ccccc1 [AGPP, (E,E)-8-Aniline-3,7-dimethyl-2,6-octadiene pyrophosphate]
inhibition of squalene synthase, in words (squalene synthase): does not Inhibit Squalene Synthase Activity; also recorded: far less potent in vitro inhibitor of squalene synthase activity than FPP; also recorded: far less potent in vitro inhibitor of squalene synthase activity than for FTase
IC50 (squalene synthase; 37° C., 30 min): 1000 µM
time-dependent increase in dansyl fluorescence / transfer to dansyl peptide, in words (FTase): transferred efficiently
time-dependent increase in dansyl fluorescence / transfer to dansyl peptide, in words (FTase; listed as 1): Time-dependent increases in the fluorescence of the dansyl group
additional time necessary to achieve 50% maturation versus FPP (Xenopus laevis oocytes; H-Ras and AGPP, mevinolin-treated oocytes, longer than for FPP): 2 to 4 h
rescue of oncogenic H-Ras biological activity (oocyte maturation) (Xenopus laevis oocytes; co-microinjected with oncogenic H-Ras, 50 μM mevinolin-treated oocytes): rescues the biological activity of oncogenic H-Ras in isoprenoid depleted oocytes with delayed maturation kinetics relative to FPP; also recorded: rescues the ability of H-Ras to induce oocyte maturation in mevinolin-treated cells
effect when given without H-Ras (Xenopus laevis oocytes; compound alone): neither FPP nor AGPP alone displayed any biological effect
